Experimental data: patent US20230391845A1, “GLP-1, GIP AND GLUCAGON RECEPTOR TRIPLE AGONISTS” (priority 2020, published 2023)
pEC50: −log10 of the molar value. *1 amine or outer side, *2 acyl side, *3 side chain or, on linkers, in order; H or OH if unused. Where a SMILES comes first, the peptide text is derived from it. Side-chain parts run from the residue outwards. [ ]: non-standard residue; d: D form. The star is where a group is joined. C18 diacid = O=C(O)CCCCCCCCCCCCCCCCC(=O)*; γGlu = O=C(O)[C@H](CCC(=O)[*:2])N[*:1]; AEEA = NCCOCCOCC(=O)O; Aib = CC(C)(N)C(=O)O

Experiments:
human GIP receptor = molecular target: T1, human GIP receptor (Homo sapiens, UniProt P48546); experiment: In vitro functional potency (CRE luciferase; whole cells), human GIPR; type: cell-based; details: BHK CRE luc2P hGIPR whole cells, Table 1, position of substituent varied; for pEC50: read-out: hGIPR CRE Luc EC50
T1 construct: expressed in transfected cells; host or cells: BHK cells (parent line BHKTS13) containing CRE luciferase
T1 sequence (P48546 22-466): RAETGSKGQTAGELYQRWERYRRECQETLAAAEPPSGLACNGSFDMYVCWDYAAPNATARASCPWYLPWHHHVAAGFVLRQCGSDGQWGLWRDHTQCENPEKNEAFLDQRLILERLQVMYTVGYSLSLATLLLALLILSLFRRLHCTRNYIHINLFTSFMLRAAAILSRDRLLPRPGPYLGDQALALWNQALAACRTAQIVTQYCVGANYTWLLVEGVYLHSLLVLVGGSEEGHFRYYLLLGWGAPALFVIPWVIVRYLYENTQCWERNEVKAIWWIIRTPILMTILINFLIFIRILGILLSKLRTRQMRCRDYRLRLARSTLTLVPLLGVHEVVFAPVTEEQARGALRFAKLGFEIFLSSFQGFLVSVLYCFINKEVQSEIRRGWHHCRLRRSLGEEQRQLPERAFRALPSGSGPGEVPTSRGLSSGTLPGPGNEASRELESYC
Description: (§1) The purpose of this example is to test the functional activity, or potency, of the compounds in vitro at the human and mouse GLP-1, GIP, and Gcg receptors. The in vitro functional potency is the measure of target receptor activation in a whole cell assay.
(§2) In vitro functional potency was determined by measuring the response of the target receptor in a reporter gene assay in individual cell lines. The assay was performed in stably transfected BHK cell lines that expresses one of the following G-protein coupled receptors: human GLP-1 receptor, human GIP receptor, human Gcg receptor, mouse GLP-1 receptor, mouse GIP receptor, or mouse Gcg receptor; and where each cell line contains the DNA for the cAMP response element (CRE) coupled to a promoter and the gene for firefly luciferase (CRE luciferase). When the respective receptor is activated, it results in the production of cAMP, which in turn results in expression of the luciferase protein. When assay incubation is completed, luciferase substrate (luciferin) is added resulting in the enzymatic conversion of luciferin to oxyluciferin and producing bioluminescence. The luminescence is measured as the readout for the assay.
(§3) The cells lines used in these assays were BHK cells with BHKTS13 as a parent cell line. The cell lines were derived from a clone containing the CRE luciferase element and were established by further transfection with the respective receptor to obtain the relevant cell line.
(§4) The cells were cultured at 37° C. with 5% CO2 in Cell Culture Medium. They were aliquoted and stored in liquid nitrogen. The cells were kept in continuous culture and were seeded out the day before each assay.
(§5) GLP-1R and GcgR Cell Culture Medium consisted of DMEM medium with 10% FBS, 500 µg/mL G418, and 300 µg/mL hygromycin. GIPR Cell Culture Medium consisted of DMEM medium with 10% FBS, 400 µg/mL G418, and 300 µg/mL hygromycin. Assay Buffer consisted of DMEM w/o phenol red, 10 mM Hepes, 1× Glutamax, 1% ovalbumin, and 0.1% Pluronic F-68.
(§6) • 1) Cells were plated at 5000 cells/well and incubated overnight in the assay plate. • 2) Cells were washed once in DPBS. • 3) Stocks of the test compounds and reference compounds in concentrations ranging from 100-300 pM were diluted 1:150 in Assay Buffer.
(§7) The data from the microtiter plate reader was first regressed in an Excel in order to calculate the x-axis, log scale concentrations based on the individual test compound's stock concentration and the dilutions of the assay. […] The software performs a non-linear regression (log(agonist) vs response). A minimum of two replicates was measured for each sample. The reported values are averages of the replicates.

human Gcg receptor = molecular target: T2, human Gcg receptor (Homo sapiens, UniProt P47871); experiment: In vitro functional potency (CRE luciferase; whole cells), human GcgR; type: cell-based; details: BHK CRE luc2P hGcgR whole cells, Table 1, position of substituent varied; for pEC50: read-out: hGcgR CRE Luc EC50
T2 construct: expressed in transfected cells; host or cells: BHK cells (parent line BHKTS13) containing CRE luciferase
Description: as §1, §2, §3, §4, §5, §6, §7

[1] = Pharmacokinetic study in minipigs, i.v. administration; parameters: species or system Göttingen minipigs; details: female, Göttingen, minipig, in vivo, iv
Procedure, shortened: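 Female Göttingen minipigs (7-14 months, 16-35 kg), fasted ~18 h pre-dose to 4 h post-dose, received i.v. injections of usually 1.5-2 nmol/kg via central venous catheter. Plasma sampled up to 14 days, assayed by ELISA or LCMS; terminal half-life (harmonic mean) from non-compartmental analysis.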

human GLP-1 receptor = molecular target: T3, human GLP-1 receptor (Homo sapiens, UniProt P43220); experiment: In vitro functional potency (CRE luciferase; whole cells), human GLP-1R; type: cell-based; details: BHK CRE luc2P hGLP-1R whole cells, Table 1, position of substituent varied; for pEC50: read-out: hGLP-1R CRE Luc EC50
T3 construct: expressed in transfected cells; host or cells: BHK cells (parent line BHKTS13) containing CRE luciferase
T3 sequence (P43220 24-463): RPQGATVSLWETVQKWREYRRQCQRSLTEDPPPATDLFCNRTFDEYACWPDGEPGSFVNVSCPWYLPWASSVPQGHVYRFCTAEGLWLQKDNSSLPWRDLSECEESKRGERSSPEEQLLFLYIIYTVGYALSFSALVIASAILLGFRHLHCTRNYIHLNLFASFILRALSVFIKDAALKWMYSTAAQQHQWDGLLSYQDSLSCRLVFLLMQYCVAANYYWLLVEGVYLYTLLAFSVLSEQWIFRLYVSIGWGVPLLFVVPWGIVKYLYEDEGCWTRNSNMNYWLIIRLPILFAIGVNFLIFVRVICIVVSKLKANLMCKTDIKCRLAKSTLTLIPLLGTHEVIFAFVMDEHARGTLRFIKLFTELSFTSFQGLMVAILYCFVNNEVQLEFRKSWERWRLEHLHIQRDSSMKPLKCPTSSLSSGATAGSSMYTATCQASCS

T2 sequence (P47871 26-477): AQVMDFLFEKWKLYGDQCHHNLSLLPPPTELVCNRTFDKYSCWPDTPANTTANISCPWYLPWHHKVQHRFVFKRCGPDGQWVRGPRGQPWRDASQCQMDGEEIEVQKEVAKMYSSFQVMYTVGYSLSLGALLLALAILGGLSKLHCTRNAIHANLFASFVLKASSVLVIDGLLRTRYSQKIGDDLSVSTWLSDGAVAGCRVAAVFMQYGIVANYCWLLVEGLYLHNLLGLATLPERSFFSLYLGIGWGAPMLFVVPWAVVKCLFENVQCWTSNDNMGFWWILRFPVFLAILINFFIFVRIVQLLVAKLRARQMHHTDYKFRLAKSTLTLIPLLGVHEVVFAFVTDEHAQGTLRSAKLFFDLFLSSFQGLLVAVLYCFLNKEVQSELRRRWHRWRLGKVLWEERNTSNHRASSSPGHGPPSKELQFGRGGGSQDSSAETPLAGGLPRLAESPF

SMILES | pEC50 (human GIP receptor) | pEC50 (human Gcg receptor) | half-life [1] [h] | pEC50 (human GLP-1 receptor) | hGIPR CRE Luc EC50 (pM) (human GIP receptor) | hGcgR CRE Luc EC50 (pM) (human Gcg receptor) | hGLP-1R CRE Luc EC50 (pM) (human GLP-1 receptor)
CC[C@H](C)[C@H](NC(=O)[C@H](CO)NC(=O)[C@H](Cc1ccc(O)cc1)NC(=O)[C@H](CC(=O)O)NC(=O)[C@H](CO)NC(=O)[C@@H](NC(=O)[C@H](Cc1ccccc1)NC(=O)[C@@H](NC(=O)CNC(=O)[C@H](CCC(N)=O)NC(=O)C(C)(C)NC(=O)[C@@H](N)Cc1ccc(O)cc1)[C@@H](C)O)[C@@H](C)O)C(=O)N[C@@H](Cc1ccc(O)cc1)C(=O)N[C@@H](CC(C)C)C(=O)N[C@@H](CC(=O)O)C(=O)N[C@@H](CCCCN)C(=O)N[C@@H](CCC(N)=O)C(=O)N[C@@H](C)C(=O)N[C@@H](C)C(=O)NC(C)(C)C(=O)N[C@@H](CCCCNC(=O)COCCOCCNC(=O)COCCOCCNC(=O)CC[C@H](NC(=O)CCCCCCCCCCCCCCCCC(=O)O)C(=O)O)C(=O)N[C@@H](Cc1ccccc1)C(=O)N[C@H](C(=O)N[C@@H](CC(N)=O)C(=O)N[C@@H](Cc1c[nH]c2ccccc12)C(=O)N[C@@H](CC(C)C)C(=O)N[C@@H](CC(C)C)C(=O)N[C@@H](C)C(=O)NCC(=O)NCC(=O)N1CCC[C@H]1C(=O)N[C@@H](CO)C(=O)N[C@@H](CO)C(=O)NCC(=O)N[C@@H](C)C(=O)N1CCC[C@H]1C(=O)N1CCC[C@H]1C(=O)N1CCC[C@H]1C(=O)N[C@@H](CO)C(N)=O)C(C)C [Compound No. 3] (H-Y[Aib]QGTFTSDYSIYLDKQAA[Aib]K([AEEA-AEEA-γGlu-C18 diacid])FVNWLLAGGPSSGAPPPS-NH2; N-terminus assumed) | 10.56 | 10.46 | 33 | 11.27 |  |  | 
CC[C@H](C)[C@H](NC(=O)[C@H](CO)NC(=O)[C@H](Cc1ccc(O)cc1)NC(=O)[C@H](CC(=O)O)NC(=O)[C@H](CO)NC(=O)[C@@H](NC(=O)[C@H](Cc1ccccc1)NC(=O)[C@@H](NC(=O)CNC(=O)[C@H](CCC(N)=O)NC(=O)C(C)(C)NC(=O)[C@@H](N)Cc1ccc(O)cc1)[C@@H](C)O)[C@@H](C)O)C(=O)N[C@@H](Cc1ccc(O)cc1)C(=O)N[C@@H](CC(C)C)C(=O)N[C@@H](CC(=O)O)C(=O)N[C@@H](CCCCN)C(=O)N[C@@H](CCC(N)=O)C(=O)N[C@@H](C)C(=O)N[C@@H](C)C(=O)NC(C)(C)C(=O)N[C@@H](CCC(=O)O)C(=O)N[C@@H](Cc1ccccc1)C(=O)N[C@H](C(=O)N[C@@H](CC(N)=O)C(=O)N[C@@H](Cc1c[nH]c2ccccc12)C(=O)N[C@@H](CC(C)C)C(=O)N[C@@H](CC(C)C)C(=O)N[C@@H](C)C(=O)NCC(=O)NCC(=O)N1CCC[C@H]1C(=O)N[C@@H](CO)C(=O)N[C@@H](CO)C(=O)NCC(=O)N[C@@H](C)C(=O)N1CCC[C@H]1C(=O)N1CCC[C@H]1C(=O)N1CCC[C@H]1C(=O)N[C@@H](CO)C(=O)N[C@@H](CCCCNC(=O)COCCOCCNC(=O)COCCOCCNC(=O)CC[C@H](NC(=O)CCCCCCCCCCCCCCCCC(=O)O)C(=O)O)C(N)=O)C(C)C [Compound No. 59, reference compound] (H-Y[Aib]QGTFTSDYSIYLDKQAA[Aib]EFVNWLLAGGPSSGAPPPSK([AEEA-AEEA-γGlu-C18 diacid])-NH2; N-terminus assumed) |  |  |  |  | lower potency | lower potency | lower potency
CC[C@H](C)[C@H](NC(=O)[C@H](CO)NC(=O)[C@H](Cc1ccc(O)cc1)NC(=O)[C@H](CC(=O)O)NC(=O)[C@H](CO)NC(=O)[C@@H](NC(=O)[C@H](Cc1ccccc1)NC(=O)[C@@H](NC(=O)CNC(=O)[C@H](CCC(N)=O)NC(=O)C(C)(C)NC(=O)[C@@H](N)Cc1ccc(O)cc1)[C@@H](C)O)[C@@H](C)O)C(=O)N[C@@H](Cc1ccc(O)cc1)C(=O)N[C@@H](CC(C)C)C(=O)N[C@@H](CC(=O)O)C(=O)N[C@@H](CCCCNC(=O)COCCOCCNC(=O)COCCOCCNC(=O)CC[C@H](NC(=O)CCCCCCCCCCCCCCCCC(=O)O)C(=O)O)C(=O)N[C@@H](CCC(N)=O)C(=O)N[C@@H](C)C(=O)N[C@@H](C)C(=O)NC(C)(C)C(=O)N[C@@H](CCC(=O)O)C(=O)N[C@@H](Cc1ccccc1)C(=O)N[C@H](C(=O)N[C@@H](CC(N)=O)C(=O)N[C@@H](Cc1c[nH]c2ccccc12)C(=O)N[C@@H](CC(C)C)C(=O)N[C@@H](CC(C)C)C(=O)N[C@@H](C)C(=O)NCC(=O)NCC(=O)N1CCC[C@H]1C(=O)N[C@@H](CO)C(=O)N[C@@H](CO)C(=O)NCC(=O)N[C@@H](C)C(=O)N1CCC[C@H]1C(=O)N1CCC[C@H]1C(=O)N1CCC[C@H]1C(=O)N[C@@H](CO)C(N)=O)C(C)C [Compound No. 1] (H-Y[Aib]QGTFTSDYSIYLDK([AEEA-AEEA-γGlu-C18 diacid])QAA[Aib]EFVNWLLAGGPSSGAPPPS-NH2; N-terminus assumed) | 10.63 | 9.80 | 61 | 11.07 |  |  | 
CC[C@H](C)[C@H](NC(=O)[C@H](CO)NC(=O)[C@H](Cc1ccc(O)cc1)NC(=O)[C@H](CC(=O)O)NC(=O)[C@H](CO)NC(=O)[C@@H](NC(=O)[C@H](Cc1ccccc1)NC(=O)[C@@H](NC(=O)CNC(=O)[C@H](CCC(N)=O)NC(=O)C(C)(C)NC(=O)[C@@H](N)Cc1ccc(O)cc1)[C@@H](C)O)[C@@H](C)O)C(=O)N[C@@H](Cc1ccc(O)cc1)C(=O)N[C@@H](CC(C)C)C(=O)N[C@@H](CC(=O)O)C(=O)N[C@@H](CCCCN)C(=O)N[C@@H](CCCCNC(=O)COCCOCCNC(=O)COCCOCCNC(=O)CC[C@H](NC(=O)CCCCCCCCCCCCCCCCC(=O)O)C(=O)O)C(=O)N[C@@H](C)C(=O)N[C@@H](C)C(=O)NC(C)(C)C(=O)N[C@@H](CCC(=O)O)C(=O)N[C@@H](Cc1ccccc1)C(=O)N[C@H](C(=O)N[C@@H](CC(N)=O)C(=O)N[C@@H](Cc1c[nH]c2ccccc12)C(=O)N[C@@H](CC(C)C)C(=O)N[C@@H](CC(C)C)C(=O)N[C@@H](C)C(=O)NCC(=O)NCC(=O)N1CCC[C@H]1C(=O)N[C@@H](CO)C(=O)N[C@@H](CO)C(=O)NCC(=O)N[C@@H](C)C(=O)N1CCC[C@H]1C(=O)N1CCC[C@H]1C(=O)N1CCC[C@H]1C(=O)N[C@@H](CO)C(N)=O)C(C)C [Compound No. 2] (H-Y[Aib]QGTFTSDYSIYLDKK([AEEA-AEEA-γGlu-C18 diacid])AA[Aib]EFVNWLLAGGPSSGAPPPS-NH2; N-terminus assumed) | 10.30 | 10.32 | 45 | 11.15 |  |  | 
